Assay results from patent US20210186972A1, “FORMULATIONS AND METHODS FOR THE PREVENTION AND TREATMENT OF TUMOR METASTASIS AND TUMORIGENESIS” (THE UNITED STATES OF AMERICA, AS REPRESENTED BY THE …, priority 2018, published 2021).

Assays:
PC3M-GFP-PTB cells = assay: Cytotoxicity measured by cellular ATP (CELLTITER GLO); assay type: cell-based, human
Description: FIG. 1 is a graph showing the concentration-response curve against PNC prevalence in PC3M (a metastatic prostate cancer cell line)-GFP (green fluorescent protein)-PTB (polypyrimidine tract-binding protein) cells (squares, PC3M, has a PNC prevalence of 75-85% in the absence of treatment) and cytotoxicity as measured by cellular ATP (CELLTITER GLO™) (circles). Representative PTB-GFP images for cells at the indicated concentrations (arrowheads indicate PNCs) (scale bar=5 μm) are shown in the three panels above the graph. The relative signal (%) is along the y-axis and Metarrestin [log M] is along the x-axis.

KPC mice = assay: Veterinary histopathology and clinical chemistry, KPC mice; assay type: in vivo
GFP-RPL29 = assay: Ribosome synthesis, inducible GFP-RPL29 cell line; assay type: cell-based; conditions: induced after exposure for 5 hours
Method: FIG. 24 is a panel showing that metarrestin interferes with ribosomal biogenesis. An inducible RPL29-GFP-expressing cell line synthesizes RPL29-GFP when treated with tetracyclin (2nd column). When cells were treated with 1 μM metarrestin before tetracycline induction, the newly synthesized proteins accumulated in the nucleoli and nuclei (right most panels) compared to the DMSO control treated cells (2nd from right panels). Scale bars=5 μm.
To examine whether the disruption of the nucleolar structure impacts ribosome synthesis, a cell line expressing inducible GFP-RPL29 (a ribosomal subunit) was used.

[1] = system: HeLa, PANC1 and PC3M cells; PANC1 xenograft tumor tissues; assay: Nucleolar structure by electron microscopy and immunofluorescence in cancer cells and tumor tissues; assay type: cell-based, human
Method: Representative electron micrographs are shown for HeLa cells (FIG. 21A; treated at 1 μM for 24 hours), primary pancreatic tumors (FIG. 21B), and liver metastases (FIG. 21C) from NSG PANC1 mice treated with vehicle (top) or 10 mg/kg metarrestin (bottom) for 7 days. […] Scale bar=1 μm.
100 nucleoli were randomly selected and analyzed to calculate nucleolar area as ((largest+shortest diameter)/2)^2×π). The comparison of mean nucleolar areas was performed using Mann Whitney U test, 2-tailed, n=4 animals per group.
To address the mechanisms by which metarrestin inhibits metastasis, cellular changes after metarrestin treatment were observed. Primary antibodies: 1:300 dilution for SH54 (anti-PTB antibody); 1:300 for Nopp140 (anti-human Nopp140 rabbit polyclonal serum RS8); 1:50 for UBF (F-9) (Santa Cruz Biotechnology); 1:100 for RPA194 (Santa Cruz Biotechnology); 1:100 for CUG-BP1 (3B1) (Santa Cruz Biotechnology); 1:10 for fibrillarin (Sigma Cat #: ANA-N); 1:1000 for SC35; 1:300 for paxillin (ab32084); 1:600 for vinculin (Sigma V9131). The fluorescein-conjugated secondary antibodies (Jackson ImmunoResearch) and ALEXA FLUOR antibodies (Thermofisher Scientific) were used at a dilution of 1:200. Samples were visualized on a Nikon ECLIPSE Ti-E inverted fluorescence microscope using NIS-Elements AR 3.2 software (Nikon).
The nucleolar disruption was reversible within 48 hours upon withdrawal of metarrestin (FIG. 47). Similar disruptions were observed among other treated cell lines, including PANC1 and PC3M cells (FIG. 48), primary tumor, and liver metastatic tissues in the PANC1 xenograft model (FIG. 21, right panels). […] The segregation of the nucleolar compartments observed by EM is believed to correspond to the nucleolar capping structures detected by immunofluorescence of nucleolar proteins (FIGS. 21A-21C, 23, and 50). […]

PANC1 cells = assay: Cell growth, PANC1; assay type: cell-based, human; conditions: 0.6 μM, after 24 hours of treatment
Description: FIG. 63 is a graph showing the drug response of PANC1 cells following metarrestin treatment. […] Mean cell viability values are plotted with standard error of the mean (SEM) from at least 2 independent experiments done in triplicate.

[2] = female, KPC, mouse, in vivo, 3 months
[3] = male, KPC, mouse, in vivo, 3 months

N=c1c2c(-c3ccccc3)c(-c3ccccc3)n(Cc3ccccc3)c2ncn1[C@H]1CC[C@H](O)CC1 [metarrestin]
Acute cytotoxicity (cellular ATP) (PC3M-GFP-PTB cells): without acute cytotoxicity
Ileum segmented filamentous bacteria (KPC mice; KPC-Metarrestin Female F01): 3/3
Ileum segmented filamentous bacteria (KPC mice; KPC-Metarrestin Male M01): 4/4
Adrenal hyperplasia, subcapsular cell (KPC mice; [2]): 2/3
Duodenum dilatation (KPC mice; [2]): 3/3
Femur marrow hyperplasia, granulocytic (KPC mice; [2]): 1/3
Gall Bladder hyperplasia, papillary (KPC mice; [2]): 3/3
Kidney hydronephrosis (KPC mice; [2]): 1/3
Kidney mineralization (KPC mice; [2]): 1/3
Liver deformity (KPC mice; [2]): 1/3
Liver inflammation, subacute (KPC mice; [2]): 3/3
Lung lymphocytic infiltrate (KPC mice; [2]): 3/3
Pancreas duct, dilation (KPC mice; [2]): 3/3
Pancreas neoplasm, graded (KPC mice; [2]): 3/3
Salivary Gland lymphocytic infiltrate (KPC mice; [2]): 2/3
Spleen extramedullary hematopoiesis, erythrocytic, increased erythropoiesis (KPC mice; [2]): 1/3
Spleen fibrosis (KPC mice; [2]): 1/3
Spleen melanin (KPC mice; [2]): 1/3
Stomach, glandular, hyperplasia, foveolar cells (KPC mice; [2]): 3/3
Thyroid ectopic thymus (KPC mice; [2]): 1/3
Vertebra hyperplasia, granulocytic, marrow (KPC mice; [2]): 1/3
Adrenal lipogenic pigment (KPC mice; [3]): 3/4
Cecum proliferative typhlitis (KPC mice; [3]): 1/4
Duodenum dilatation (KPC mice; [3]): 1/4
Duodenum hyperplasia, crypt (KPC mice; [3]): 1/4
Femur marrow hyperplasia, granulocytic (KPC mice; [3]): 4/4
Gall Bladder hyperplasia, papillary (KPC mice; [3]): 4/4
Heart dilation, atrium (KPC mice; [3]): 1/4
Heart mineralization (KPC mice; [3]): 1/4
Kidney mineralization (KPC mice; [3]): 1/4
Kidney vacuolation. proximal tubule (KPC mice; [3]): 1/4
LN, mandibular hyperplasia, lymphoid (KPC mice; [3]): 1/4
LN, mandibular plasmacytosis (KPC mice; [3]): 1/4
Liver inflammation, subacute (KPC mice; [3]): 2/4
Liver lymphocytic infiltrate (KPC mice; [3]): 2/4
Lung lymphocytic infiltrate (KPC mice; [3]): 3/4
Pancreas duct, dilation (KPC mice; [3]): 4/4
Pancreas neoplasm, graded (KPC mice; [3]): 4/4
Skin/Subcutis inflammation, chronic active (KPC mice; [3]): 1/4
Spleen extramedullary hematopoiesis, erythrocytic, increased erythropoiesis (KPC mice; [3]): 1/4
Spleen fibrosis (KPC mice; [3]): 2/4
Stomach, glandular, hyperplasia, foveolar cells (KPC mice; [3]): 2/4
Stomach, nonglandular, erosion (KPC mice; [3]): 1/4
Thyroid hyperplasia, papillary (KPC mice; [3]): 1/4
Vertebra hyperplasia, granulocytic, marrow (KPC mice; [3]): 4/4
Histopathological or laboratory abnormalities (KPC mice; mouse, in vivo, 10 mg/kg): failed to discern any histopathological or laboratory abnormalities
Histopathological or laboratory abnormalities (KPC mice; mouse, in vivo, po, 25 mg/kg): failed to discern any histopathological or laboratory abnormalities
Newly synthesized GFP-RPL29 in the cytoplasm (GFP-RPL29): largely undetected in the cytoplasm
Production of GFP-RPL29 and its nucleolar localization (GFP-RPL29): appeared unchanged
Nucleolar structure ([1]; 1 μM, electron microscopy): induced collapse of the nucleolus
Time to reversal of nucleolar disruption upon withdrawal ([1]; after 1 μM for 24 hours, HeLa cells): ≤ 48 h
Nucleolar volume ([1]; treated cell lines and cancer tissues, p<0.0001): significantly reduced
PANC1 cell growth (PANC1 cells): did not affect PC3M or PANC1 cell growth
